Experimental data from US6403624B1, “8,8A-dihydroindeno[1,2-D] thiazole derivatives which are substituted in the 8A-position; processes for their preparation and their use as medicaments” (Aventis Pharma Deutschland GmbH, priority 2000, dated 2002).

Tests used:
female NMRI mice = test: Anorectic action: cumulated milk consumption after oral administration; assay type: in vivo
Experimental: The anorectic action was tested on female NMRI mice. After withdrawal of food for 24 hours, the test preparation of the invention was administered via a stomach tube. Kept individually and with free access to drinking water, the animals were offered evaporated milk 30 minutes after the administration of the preparation. The consumption of evaporated milk was determined every half-hour for 7 hours and the general condition of the animals was observed. The measured milk consumption was compared with that of untreated control animals.

OC12N=C(c3ccccc3)SC1(Br)Cc1cc(Cl)ccc12 (stereo not drawn) [Example 1, 8a-Bromo-6-chloro-2-phenyl-8,8a-dihydroindeno[1,2-d]thiazol-3a-ol]
Number of animals/ cumulated milk consumption of the treated animals N/[ml] (female NMRI mice; oral dose 50 mg/kg via stomach tube, female NMRI mice after 24 h food withdrawal, evaporated milk consumption determined over 7 hours, N=5): 5/0.64 ml
Reduction of the cumulated milk consumption in % of the control (female NMRI mice; oral dose 50 mg/kg, female NMRI mice, compared to untreated control animals): 82%
melting point: 148 °C
